Results reported in patent US5236942A, “5-aryl-4-alkyl-3H-1,2,4-triazole-3-thiones useful in the treatment of Altzheimer's dementia” (Merrell Dow Pharmaceuticals Inc., priority 1992, dated 1993).
Read-outs that look alike come from different tables or passages of the source.

Key:
[1] = tested on: hippocampal high affinity choline uptake; details: mice; cited from earlier work
[2] = tested on: memory in mice; details: versus normal vehicle-treated control mice; cited from earlier work
[3] = tested on: time dependent memory deficit in rats; experiment: Working memory in the T-maze, rats with 0- or 60-second delay; format: in vivo, Male Sprague-Dawley rats; details: for Number of errors (5 = chance response), 0-Second Delay / Number of errors (5 = chance response), 60-Second Delay: ten trials, mean ± SEM, n = 12
Protocol: The activity of these compounds in enhancing memory can also be confirmed in experiments that study working memory in rats by evaluating the acquisition of alternation behavior in a T-maze. The maze used has the shape of a T with alleys 16 cm wide and side walls 20 cm high, the main arm being 65 cm long and the two side arms 45 cm long. Male Sprague-Dawleyrats are maintained on a 23 hour food deprivation schedule and are tested each day (Monday-Friday), each trial in the maze consisting of two runs. The rat starts at the end of the main arm and runs to the choice point where it must turn either left or right. The first is a forced run where one arm of the T-maze has been blocked off at the choice point. The remaining arm has a bowl of sweetened condensed milk as reward. On the second run the rat has a free choice of arms and learns by experience that food reward is to be found down the arm not visited on the first run. Trials are run at 30-second intervals, and the arm choice on the forced run is varied at random between trials. Arm entry is defined by the rat's placing all four paws in the arm, and incorrect selection of the arm is scored as an error. […] Impairment of performance is achieved for testing the compound of this invention in two different ways. […] The table compares the number of incorrect responses by rats tested in trials wherein there is no delay after the forced run and trials wherein there is a 60-second delay. […] For this test, the number of errors expected by random response, i.e., the selection of the correct arm 50% of the time, is 5.

[4] = tested on: scopolamine-induced memory deficit in rats; experiment: Working memory in the T-maze, rats treated with scopolamine; format: in vivo, Male Sprague-Dawley rats; details: for Number of errors (12 = chance response), T-maze: 24 trials, mean ± SEM, n = 12
Protocol: The maze used has the shape of a T with alleys 16 cm wide and side walls 20 cm high, the main arm being 65 cm long and the two side arms 45 cm long. Male Sprague-Dawleyrats are maintained on a 23 hour food deprivation schedule and are tested each day (Monday-Friday), each trial in the maze consisting of two runs. The rat starts at the end of the main arm and runs to the choice point where it must turn either left or right. The first is a forced run where one arm of the T-maze has been blocked off at the choice point. The remaining arm has a bowl of sweetened condensed milk as reward. On the second run the rat has a free choice of arms and learns by experience that food reward is to be found down the arm not visited on the first run. Trials are run at 30-second intervals, and the arm choice on the forced run is varied at random between trials. Arm entry is defined by the rat's placing all four paws in the arm, and incorrect selection of the arm is scored as an error. Noncompleted trials, where the rat has not made a choice within 3 minutes, are included as errors.5-(3-Fluorophenyl)-2,4-dimethyl-3H-1,2,4-triazole-3-thione is administered one hour before the first trial of each session. Impairment of performance is achieved for testing the compound of this invention in two different ways.
In the trials summarized in Table 2, the amnestic muscarinic antagonist scopolamine is administered subcutaneously at a dose of 0.15 mg/kg 15-minutes before the first trial, and there is a delay of 5-10 seconds after the forced run before the second run of the trial. […] All values are expressed as the mean number of errors per block of twenty-four trials with groups of 12 animals±the standard error of the mean. For this test, the number of errors expected by random response, i.e., the selection of the correct arm 50% of the time, is 12.

[5] = tested on: carrier that mediates choline transport ([3H] hemicholinium-3 binding in rat brain membranes); experiment: [3H] hemicholinium-3 binding in rat brain membranes (cortex) after i.p. dosing of rats; parameters: species or system Male Sprague-Dawley rats; details: for Bmax ± SEM of [3H] hemicholinium-3 binding / Kd: rat brain cortex; for Kd: Kd of the radioligand, read-out: Kd ± SEM of [3H] hemicholinium-3 binding
Source text: Another measure of cholinergic activity is the binding of the radioligand [^3 H] hemicholinium-3, ([^3 H] HC-3) which labels the carrier that mediates choline transport. […] Therefore, the stimulation of [^3 H] HC-3 binding in vitro after treatment with drugs in vivo is also a marker for increased cholinergic activity, predictive of enhanced cognition in treated animals.
The pharmacological properties of these compounds as enhancers of memory and cognition and their relative potencies may be measured through their effect on neuro-transmitters in the brain. Since drugs that block GABA inhibition in the cholinergic neurons of the basal forebrain nuclei will stimulate cholinergic firing, thus stimulating memory, the capacity of the drugs to enhance cognition can be assessed by measuring the increase in cholinergic firing rate. The increase in cholinergic firing rate is measured indirectly by measuring choline uptake or [^3 H] hemicholinium-3 binding in brain cells taken from treated animals.
To test for [^3 H] hemicholinium-3 binding in brain cells from the brain cortex, drugs were dissolved in saline by sonication. Male Sprague-Dawley rats were dosed i.p. and sacrificed by decapitation 60 min after injection. The brains were removed and dissected, and tissue was homogenized in 20 volumes of ice-cold buffer and stored frozen until assayed. Binding was measured by incubating the tissue with varying concentrations of [^3 H]hemicholinium-3 in an isotonic Tris buffer (pH 7.4) for 60 min at room temperature. The incubation was terminated by rapid filtration through Whatman GF/B filters. After drying, the filters were placed in scintillation cocktail and radioactivity was determined using a Beckman scintillation counter. In two experiments, the values for the Kd and Bmax were determined by nonlinear curve-fitting and the average values for samples of 3 or more animals reported.

[6] = tested on: hippocampal slice; experiment: Electrophysiological assay of long term potentiation of the hippocampal slice
Source text: (§1) Experiments also compared 5-(3-fluorophenyl)-2,4-dimethyl-3H-1,2,4-triazole-3-thione, a compound of formula I, with a series of β-carbolines in an electrophysiological assay system involving long term potentiation of the hippocampal slice.

[7] = tested on: benzodiazepine receptor; experiment: Inverse agonism at the benzodiazepine receptor, in the hippocampal slice tests; format: cell-based; details: in these tests
Source text: as §1

[8] = tested on: high affinity choline uptake (HACU); details: cited from earlier work; for effect on HACU: acute administration i.p.; for effect on cortical or hippocampal HACU: after in vivo administration
[9] = 1 mg/kg i.p., n = 4, 60 min after injection
[10] = 2.5 mg/kg i.p., n = 4, 60 min after injection
[11] = 25 mg/kg i.p., n = 3, 60 min after injection
[12] = 25 mg/kg i.p., n = 3, vs saline (Bmax 11.9)
[13] = 5 mg/kg i.p., n = 7, 60 min after injection
[14] = higher concentrations / high doses

For `CC(=C(CCOC(=O)C(C)C)SSC(CCOC(=O)C(C)C)=C(C)N(C=O)Cc1cnc(C)nc1N)N(C=O)Cc1cnc(C)nc1N` (stereo in doubt) [sulbutiamine], the “hippocampal high affinity choline uptake” value [1] is given as “increased” and the “performance in operant conditioning memory task” value [2] is given as “performance was enhanced”.

In the case of `Cn1nc(-c2cccc(F)c2)n(C)c1=S` [5-(3-Fluorophenyl)-2,4-dimethyl-3H-1,2,4-triazole-3-thione], the “Number of errors (5 = chance response), 0-Second Delay” value ([3]; 1 mg/kg) is reported as 0.50 ± 0.26, the “Number of errors (5 = chance response), 60-Second Delay” value (“Number of errors … 60-Second Delay” below) ([3]; 1 mg/kg, * p < 0.05 vs 0 seconds delay) is reported as 4.42 ± 0.47 and the “Number of errors (5 = chance response), 0-Second Delay” value ([3]; 5 mg/kg) is reported as 0.67 ± 0.33. For the same compound, the “Number of errors … 60-Second Delay” value ([3]; 5 mg/kg, * p < 0.05 vs 0 seconds delay) was 2.33 ± 0.50, the “Number of errors (5 = chance response), 0-Second Delay” value ([3]; 10 mg/kg) was 0.58 ± 0.19 and the “Number of errors … 60-Second Delay” value ([3]; 10 mg/kg) was 1.75 ± 0.43. The “reversal of time dependent deficit in the T-maze” value ([3]; 60-second delay) was “effectively reverses the time dependent deficit”, the “Number of errors (12 = chance response), T-maze” value (“Number of errors … T-maze” below) ([4]; 1 mg/kg with scopolamine 0.15 mg/kg, * p < 0.05 vs saline) was 5.0 ± 0.26 and the “reversal of scopolamine-induced memory deficit in the T-maze” value ([4]; 5 mg/kg) was “reverses the scopolamine-induced memory deficit”. For the same compound, the “Number of errors … T-maze” value ([4]; 5 mg/kg with scopolamine 0.15 mg/kg, + p < 0.05 vs scopolamine) was 4.0 ± 0.8, the “Bmax ± SEM of [3H] hemicholinium-3 binding” value (“Bmax ± SEM” for short) [5, 9] was 20.3 ± 1.2 fmol/mg Protein and the “% Increase in Bmax” value ([5]; 1 mg/kg i.p., n = 4, vs saline (Bmax 9.7)) was 109%. For the same compound, the “Bmax ± SEM” value [5, 10] was 15.2 ± 3.0 fmol/mg Protein, the “% Increase in Bmax” value ([5]; 2.5 mg/kg i.p., n = 4, vs saline (Bmax 9.7)) was 57% and the Kd [5, 9] was 3.8 ± 0.6 nM. For the same compound, the Kd [5, 10] was 6.5 ± 1.8 nM and the “epileptiform activity in the hippocampal slice” value (“epileptiform activity” for short) [6] was “did not produce the epileptiform activity”.

For `Cn1nc(-c2cccc(C(F)(F)F)c2)n(C)c1=S` [5-(3-Trifluoromethylphenyl)-2,4-dimethyl-3H-1,2,4-triazole-3-thione], the “Bmax ± SEM” value [5, 11] was 16.0 ± 3.0 fmol/mg Protein, the “% Increase in Bmax” value [5, 12] was 35% and the Kd [5, 11] was 1.5 ± 0.1 nM.

In the case of `Cn1c(-c2ccccc2)n[nH]c1=S` [5-Phenyl-4-methyl-3H-1,2,4-triazole-3-thione], the “Bmax ± SEM” value [5, 11] is reported as 18.7 ± 3.2 fmol/mg Protein, the “% Increase in Bmax” value [5, 12] is reported as 57% and the Kd [5, 11] is reported as 2.14 ± 0.7 nM.

In the case of `Cn1nc(-c2ccccc2)n(C)c1=S` [5-phenyl-2,4-dimethyl-3H-1,2,4-triazole-3-thione], the “Bmax ± SEM” value [5, 13] is reported as 19.0 ± 3.4 fmol/mg Protein, the “% Increase in Bmax” value ([5]; 5 mg/kg i.p., n = 7, vs saline (Bmax 11.9)) is reported as 60% and the Kd [5, 13] is reported as 2.8 ± 0.5 nM.

With `CNC(=O)c1cc2c(cn1)[nH]c1ccccc12` [N-methyl-β-carboline-3-carboxamide] the inverse agonist character [7] was “partial inverse agonist” and the “epileptiform activity” value [6] was “produced epileptiform activity”.

With `CN1[C@@H]2C[C@@H](OC(=O)[C@H](CO)c3ccccc3)C[C@H]1[C@@H]1O[C@@H]12` [Scopolamine, reference compound] the “Number of errors … T-maze” value ([4]; scopolamine 0.15 mg/kg s.c. alone, ** p < 0.01 vs saline) was 6.9 ± 0.7.

In the case of `CN(C)CCC=C1c2ccccc2CCc2ccccc21` [amitriptyline], the “effect on HACU” value [8] is given as “no effect”.

In the case of `CNCCCN1c2ccccc2CCc2ccccc21` [desipramine], the “effect on HACU” value [8] is given as “no effect”.

In the case of `CCOC(=O)c1cc2c(cn1)[nH]c1ccccc12` [ethyl β-carboline-3-carboxylate], the inverse agonist character [7] is reported as “full inverse agonists” and the “epileptiform activity” value [6, 14] is reported as “produced epileptiform activity”.

In the case of `CN(C)CCCN1c2ccccc2CCc2ccccc21` [imipramine], the “effect on HACU” value [8] is given as “no effect”.

In the case of `CCc1c(C(=O)OC)ncc2[nH]c3cc(OC)c(OC)cc3c12` [methyl 6,7-dimethoxy-4-ethyl-β-carboline-3-carboxylate], the inverse agonist character [7] is reported as “full inverse agonists” and the “epileptiform activity” value [6, 14] is reported as “produced epileptiform activity”.

With `COC(=O)c1cc2c(cn1)[nH]c1ccccc12` [methyl β-carboline-3-carboxylate] the inverse agonist character [7] was “full inverse agonists” and the “epileptiform activity” value [6, 14] was “produced epileptiform activity”.

In the case of `Cc1cc(-c2ccccc2)nnc1NCCN1CCOCC1` [minaprine], the “effect on striatal, cortical and hippocampal HACU” value ([8]; 30 mg/kg acute dose) is given as “weak effect”.

In the case of `NC(=O)CN1CC(O)CC1=O` (stereo not drawn) [oxiracetam], the “effect on cortical or hippocampal HACU” value [8] is given as “stimulate cortical or hippocampal HACU”.

For `CC(C)(CO)[C@@H](O)C(=O)NCCCC(=O)O` [pantoyl-GABA], the “effect on cortical or hippocampal HACU” value [8] is given as “stimulate cortical or hippocampal HACU”.

For `CC(C)N(CCNC(=O)CN1CCCC1=O)C(C)C` [pramiracetam], the “effect on cortical or hippocampal HACU” value [8] is listed as “stimulate cortical or hippocampal HACU”.

For `CCOc1ccccc1OCC1CNCCO1` (stereo not drawn) [viloxazine], the “effect on HACU” value [8] is given as “no effect”.
